Article PMC8009417, “Selective killing of homologous recombination-deficient cancer cell lines by inhibitors of the RPA:RAD52 protein-protein interaction” (PLoS ONE, 2021)

Columns and labels:
[1] = molecular target: T1, RPA:RAD52 protein-protein interaction (Homo sapiens, UniProt P43351); test: FluorIA (Fluorescence-based protein-protein Interaction Assay), GFP-RAD52 binding to plate-coated RPA; conditions: polynomial curve fitting; 15 dose concentrations 0.03–500 μM, triplicate; RAD52(1–303) positive control; read-out: EC50 in FluorIA (inhibition of RPA:RAD52 PPI)
T1 construct: made in house
T1 sequence (P43351 1-418): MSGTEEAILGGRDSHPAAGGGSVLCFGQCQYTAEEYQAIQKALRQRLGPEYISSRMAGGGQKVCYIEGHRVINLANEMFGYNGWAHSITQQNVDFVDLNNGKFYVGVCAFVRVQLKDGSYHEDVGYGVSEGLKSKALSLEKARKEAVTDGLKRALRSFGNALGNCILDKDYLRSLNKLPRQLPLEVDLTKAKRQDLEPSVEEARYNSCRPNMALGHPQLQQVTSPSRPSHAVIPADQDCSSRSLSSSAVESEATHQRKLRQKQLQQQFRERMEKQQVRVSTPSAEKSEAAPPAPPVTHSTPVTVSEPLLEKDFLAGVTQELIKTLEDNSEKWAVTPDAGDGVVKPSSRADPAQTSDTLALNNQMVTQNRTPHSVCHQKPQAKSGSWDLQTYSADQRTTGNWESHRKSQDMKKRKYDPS
Procedure: A newly developed fluorescence-based assay for detecting protein-protein interactions, FluorIA was used to identify SMIs of RPA:RAD52 PPI. The detailed FluorIA protocol is published elsewhere. Briefly, 384-well plates (Thermo Fisher Scientific, #460518) were coated with purified RPA. Then compounds or controls were added and incubated with freshly prepared GFP-RAD52. RAD52(1–303) without GFP-tag and buffer (including DMSO) only were used as controls. Then the relative fluorescence (RFU) was measured using a POLARstar OPTIMA plate reader (BMG LABTECH) on emptied plates at an excitation/emission (for eGFP) of 485/520 nm at 2500 gain setting.
Three chemical libraries the 355-member SelleckChem Kinase Inhibitor Library, the 1200-member Prestwick Chemical Library, and the 100,000-member ChemBridge library were used for the screening. The screening of the SelleckChem Kinase Inhibitor and the Prestwick libraries were performed at 10 and 100 μM each in duplicate. The screening of the ChemBridge library was conducted at 100 μM. […] The statistical criteria for a hit were fully described in Al-Mugotir et al.. Each hit was verified in triplicate at 10 and 100 μM.
The in vitro EC50 value of each hit was determined with FluorIA. The chemicals were serially diluted by two-fold increments from 0.030 to 500 μM and analyzed in triplicate with FluorIA. RAD52(1–303) was used as a positive control and buffer with DMSO was used as a negative control. Candidate SMIs with strong inhibition were purchased, and a 1D NMR analysis was carried out to verify their identities. The eleven candidates SMIs were purchased as follows: 5137134, 5246481, 52614577,5316833, 5373030, and 7623574 from Chembridge HIT2LEAD, 5989499 from Wuxi lab network, 5375405 from Aronis, quinacrine and mitoxantrone from Sigma Aldrich, and doxorubicin from LC labs. D-I03 was purchased from Molport. Their effectiveness in inhibiting the RPA:RAD52 PPI was confirmed after purchase with the FluorIA as described above (S1 Fig).
Supplementary file pone.0248941.s001.tif: S1 Fig Validation experiments of eleven hits with the FlourIA. Sixteen treatment concentrations were used (0.030–500 μM) increasing by two-fold increments of each molecule/drug obtained as a hit in HTS FluorIA. RAD52(1–303) without GFP-tag and buffer (including DMSO) only were used as controls. Percent inhibition was calculated as follows: [(RFUSMI—RFURAD52(1–303)) / (RFUDMSO—RFURAD52(1–303))]*100, where RFU is relative fluorescence unit. An average of triplicate measurements was used. The treatment points for quinacrine and doxorubicin beyond 125 μM were showing characteristics of aggregation and were not used. (TIF) Click here for additional data file.

[2] = system: BRCA1-deficient UWB1.289 ovarian cancer cells (BRCA1-); test: Cell viability assay (PrestoBlue, 72 h), UWB1.289; format: cell-based; conditions: Homo sapiens, UWB1289, estimated from the graphs
Text: BRCA1-deficient UWB1.289 cells corrected with wild-type BRCA1 gene (BRCA1+; closed triangle) and parental BRCA1-deficient UWB1.289 (BRCA1-; closed circle). Two PARPi-resistant cell lines derived from UWB1.289, UWB1.289.SYr12 (closed diamond) and UWB1.SYr13 (X), were also examined.
UWB1.289 (a gift from Dr. Lee Zou, Harvard Medical School, Boston, MA) were derived from a serous ovarian carcinoma with a germline BRCA1 mutation and a deletion of the wild-type allele. […] Two PARP-resistant cell lines, SYr12 and SYr13, were derived from the UWB1.289. The Mammary Epithelial growth media, along with SupplementMix solution for UWB1 cell lines, were obtained from PromoCell GmbH and mixed as described.
Cells were seeded 5 x 10^3 cells per well in 96-well plates in a 90 μL volume per well one day before treatment. Cells in 96-well plates were incubated with increasing concentrations of the compound or vehicle control (1% DMSO) for 72 hours. Each treatment plate contained nine concentrations of a compound in sextuplicate. Growth inhibition was determined using PrestoBlue reagent (Life Technologies, #A13261). Fluorescent measurements were taken using a Spectramax M5 plate reader (MDS). To assess cells’ replication in the absence of compounds as a control, six wells on each plate were treated with vehicle to be read in triplicate at the initial treatment day (T0) and at 72-hour read (T100).

Structure (SMILES): O=C1c2c(O)ccc(O)c2C(=O)c2c(NCCNCCO)ccc(NCCNCCO)c21 [Mitoxantrone, mitoxantrone]
- EC50 [1]: 29.7 µM
- EC50 [2]: 0.2 µM
